Measured values from US9828350B2, “5,6-dihydro-2H-[1,4]oxazin-3-yl-amine derivatives useful as inhibitors of beta-secretase (BACE)” (Janssen Pharmaceutica NV, priority 2010, dated 2017).

Legend:
Abeta total = experiment: Cellular αLisa assay in SKNBE2 cells, Abeta total; format: cell-based, human; conditions: incubated for 18 hours; for IC50: Homo sapiens, SKNBE2, 18 h, read-out: Cellular αLisa assay in SKNBE2 cells Abetatotal pIC50 (converted)
Method in brief: (§1)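 Secreted Abeta levels were measured by sandwich αLisa, pairing biotin-AbN/25 donor beads with Ab4G8 acceptor beads for total Abeta or cAb42/26 for Abeta 1-42, read at 615 nm after 650 nm excitation following 1 hour. Cells were SKNBE2 expressing wild-type hAPP695, exposed to compound for 18 hours.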

[1] = target: recombinant BACE1 protein (Homo sapiens, UniProt P56817); experiment: Biochemical FRET based assay; conditions: recombinant BACE1 1 μg/ml, 120 minutes at room temperature, pH 5.0; for IC50: read-out: Biochemical FRET based assay pIC50 (converted)
Chain of recombinant BACE1 protein (P56817 46-501): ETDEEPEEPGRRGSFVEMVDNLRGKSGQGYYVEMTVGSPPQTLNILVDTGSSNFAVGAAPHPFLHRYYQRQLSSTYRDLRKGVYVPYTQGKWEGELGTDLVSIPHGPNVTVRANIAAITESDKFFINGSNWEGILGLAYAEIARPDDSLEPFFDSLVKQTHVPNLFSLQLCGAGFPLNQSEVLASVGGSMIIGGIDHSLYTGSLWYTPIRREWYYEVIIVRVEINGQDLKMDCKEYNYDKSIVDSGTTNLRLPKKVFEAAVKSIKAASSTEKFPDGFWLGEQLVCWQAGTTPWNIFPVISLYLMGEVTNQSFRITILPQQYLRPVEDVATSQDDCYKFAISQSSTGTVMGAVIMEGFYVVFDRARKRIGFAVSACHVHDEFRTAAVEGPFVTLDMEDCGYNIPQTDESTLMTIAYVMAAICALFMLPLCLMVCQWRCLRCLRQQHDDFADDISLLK
Method in brief: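 Proteolysis was read as the rise in donor fluorescence (320 nm excitation, 405 nm emission) from T0 to T120, expressed in RFU. The reaction ran 120 minutes at room temperature at pH 5.0 in citrate buffer with 4% DMSO, using […] quenched Swedish APP peptide and 1 μg/ml BACE1.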

Abeta 1-42 = experiment: Cellular αLisa assay in SKNBE2 cells, Abeta 1-42; format: cell-based, human; conditions: incubated for 18 hours; for IC50: Homo sapiens, SKNBE2, 18 h, read-out: Cellular αLisa assay in SKNBE2 cells Abeta 42 pIC50 (converted)
Method in brief: as §1

| SMILES | IC50 (Abeta total) | IC50 [1] | IC50 (Abeta 1-42) | melting point | Cellular αLisa assay in SKNBE2 cells Abetatotal pIC50 (Abeta total) | Cellular αLisa assay in SKNBE2 cells Abeta 42 pIC50 (Abeta 1-42) | Biochemical FRET based assay pIC50 [1] |
| --- | --- | --- | --- | --- | --- | --- | --- |
| Cc1cc(Br)cnc1C(=O)Nc1ccc(F)c([C@@]2(C3CC3)N=C(N)CO[C@@H]2F)c1 [Compound 314] | 0.0575 µM | 0.055 µM | 0.0832 µM | 132.03 °C |  |  |  |
| CC1(c2cc(NC(=O)c3ncc(Cl)cc3Cl)ccc2F)N=C(N)COC1F (single isomer, unassigned) [Compound 128] |  | 5.75 µM |  | 93.3 °C | 6.02 | 6.0 |  |
| CC1(c2cc(NC(=O)c3ncc(Cl)cc3F)ccc2F)N=C(N)COC1F (single isomer, unassigned) [Compound 130] |  | 1.91 µM |  | 116.4 °C | 6.48 | 6.47 |  |
| COc1cncc(-c2cccc(C3(C(F)(F)F)COCC(N)=N3)c2)c1 (racemic) [Compound 152, rac-5-[3-(5-methoxypyridin-3-yl)phenyl]-5-(trifluoromethyl)-5,6-dihydro-2H-1,4-oxazin-3-amine] | 3.16 µM | 3.89 µM | 3.16 µM | 202.5 °C |  |  |  |
| CC1(c2cc(NC(=O)c3ccc(Cl)cn3)cc(C(F)(F)F)c2)COCC(N)=N1 (stereo not shown) [Compound 197] | 0.166 µM | 1 µM | 0.17 µM | 175.32 °C |  |  |  |
| C[C@]1(c2cc(-c3cncc(C#N)c3)c(F)cc2F)N=C(N)CO[C@@H]1C(F)(F)F [Compound 317] | 0.468 µM | 2.04 µM | 0.55 µM | 177.94 °C |  |  |  |
| COc1cnc(C(=O)Nc2ccc(F)c([C@]3(C4CC4)COCC(N)=N3)c2)cn1 [Compound 299] | 0.0214 µM | 0.17 µM | 0.024 µM | 196.4 °C |  |  |  |
| COc1ccc(C(=O)Nc2ccc(F)c([C@@]3(C)N=C(N)CO[C@@]3(F)C(F)(F)F)c2)nc1 [Compound 305] | 0.0251 µM | 0.0417 µM | 0.0251 µM | 123.8 °C |  |  |  |
| NC1=NC(c2cccc(NC(=O)c3ccc(Cl)cn3)c2)(C2CC2)COC1 (racemic) [Compound 153, rac-N-[3-(5-Amino-3-cyclopropyl-3,6-dihydro-2H-1,4-oxazin-3-yl)phenyl]-5-chloropyridine-2-carboxamide] | 0.0132 µM | 0.0891 µM | 0.0115 µM | 161.5 °C |  |  |  |
| COc1cncc(-c2cccc(C3(C)N=C(N)COC3F)c2)c1 (stereo not shown) [Compound 87] |  |  |  | 139.23 °C | 6.47 | 6.46 | 5.81 |
| C[C@]1(c2cc(NC(=O)c3ncc(Cl)cc3Cl)ccc2F)N=C(N)CO[C@@]1(F)C(F)(F)F [Compound 181] | 0.0135 µM | 0.0263 µM | 0.0135 µM | 200.16 °C |  |  |  |
| CC1(c2cccc(NC(=O)c3ncc(Cl)cc3F)c2)N=C(N)COC1(F)C(F)(F)F (single isomer, unassigned) [Compound 172] |  | 0.513 µM |  | 180.17 °C | 6.81 | 6.74 |  |
| CC1(c2cccc(NC(=O)c3ncc(Cl)cc3F)c2)N=C(N)COC1(F)C(F)(F)F (single isomer, unassigned) [Compound 174] |  | > 30.2 µM |  | 179.18 °C | <5 | <5 |  |
| CC1(c2cc(-c3cncnc3)c(F)cc2F)N=C(N)COC1F (stereo not shown) [Compound 84] | 4.47 µM | 22.9 µM | 3.89 µM | 195.3 °C |  |  |  |
| CC1(c2cccc(-c3cc(Cl)cc(Cl)c3)c2)COCC(N)=N1 (racemic) [Compound 2, rac-5-(3′,5′-dichlorobiphenyl-3-yl)-5-methyl-5,6-dihydro-2H-1,4-oxazin-3-amine] | 0.617 µM | 1.91 µM | 0.724 µM | 197 °C |  |  |  |
| CC1(c2cccc(NC(=O)c3ncccc3F)c2)COCC(N)=N1 (racemic) [Compound 6, rac-N-[3-(5-amino-3-methyl-3,6-dihydro-2H-1,4-oxazin-3-yl)phenyl]-3-fluoropyridine-2-carboxamide] | 0.457 µM | 5.13 µM | 0.513 µM | 155.6 °C |  |  |  |
| CC1(c2cccc(-c3cncnc3)c2)N=C(N)COC1F (stereo not shown) [Compound 98] |  | 2.82 µM |  | 189.3 °C | 6.14 | 6.19 |  |

| SMILES | IC50 (Abeta total) | IC50 [1] | IC50 (Abeta 1-42) | melting point | Cellular αLisa assay in SKNBE2 cells Abetatotal pIC50 (Abeta total) | Cellular αLisa assay in SKNBE2 cells Abeta 42 pIC50 (Abeta 1-42) | Biochemical FRET based assay pIC50 [1] |
| --- | --- | --- | --- | --- | --- | --- | --- |
| CC1(c2cc(-c3cncnc3)c(F)cc2F)COC2(CC2)C(N)=N1 (stereo not shown) [Compound 72] | 0.646 µM | 2.63 µM | 0.631 µM | 213.1 °C |  |  |  |
| COc1ccc(C(=O)Nc2ccc(F)c([C@@]3(C)N=C(N)CO[C@@H]3F)c2)nc1 [Compound 208] | 0.01 µM | 0.0269 µM | 0.011 µM | 185.6 °C |  |  |  |
| N#Cc1ccc(C(=O)Nc2ccc(F)c([C@@]3(C4CC4)N=C(N)CO[C@H]3C(F)(F)F)c2)nc1 [Compound 229, (2R,3R)—N-{3-[5-amino-3-cyclopropyl-2-(trifluoromethyl)-3,6-dihydro-2H-1,4-oxazin-3-yl]-4-fluorophenyl}-5-cyanopyridine-2-carboxamide] | 0.0145 µM | 0.0447 µM | 0.0141 µM | 181.79 °C |  |  |  |
| C[C@]1(c2cc(-c3cncc(Cl)c3)c(F)cc2F)N=C(N)CO[C@]1(F)C(F)(F)F [Compound 212] | > 10 µM | 6.46 µM | > 10 µM | 145.3 °C |  |  |  |
| C[C@]1(c2cc(NC(=O)c3ccc(C#N)cn3)ccc2F)N=C(N)CO[C@@]1(F)C(F)(F)F [Compound 183] | 0.0138 µM | 0.0407 µM | 0.0145 µM | 196.01 °C |  |  |  |
| C[C@]1(c2cc(-c3cncnc3)c(F)cc2F)N=C(N)CO[C@@]1(F)C(F)(F)F [Compound 211] | 1.74 µM | 1.41 µM | 2.19 µM | 62 °C |  |  |  |
| CCC1(c2cc(-c3cncnc3)ccc2F)N=C(N)COC1(F)C(F)(F)F (stereo not shown) [Compound 303] |  | 1.82 µM |  | 204.89 °C | 5.76 | 5.73 |  |
| COc1cnc(C(=O)Nc2ccc(F)c([C@@]3(C)N=C(N)CO[C@]3(F)C(F)(F)F)c2)cn1 [Compound 184] | 0.363 µM | 0.407 µM | 0.363 µM | 198.43 °C |  |  |  |
| CC1(c2cccc(-c3cncnc3)c2)N=C(N)COC1F (single isomer, unassigned) [Compound 94] |  | > 30.2 µM |  | 115.4 °C | 5.34 | 5.43 |  |
| CC1(c2cccc(NC(=O)c3ccncn3)c2)N=C(N)COC1(F)C(F)(F)F (single isomer, unassigned) [Compound 189] |  | > 30.2 µM |  | 189.29 °C | <5 | <5 |  |
| COc1cncc(-c2ccc(F)c(C3(C)N=C(N)COC3C(F)(F)F)c2)c1 (stereo not shown) [Compound 105] | 0.224 µM | 1.55 µM | 0.2 µM | 196.9 °C |  |  |  |
| C[C@]1(c2cc(NC(=O)c3ncc(Cl)cc3Cl)ccc2F)N=C(N)CO[C@]1(F)C(F)(F)F [Compound 185] | 0.195 µM | 0.166 µM | 0.2 µM | 165.14 °C |  |  |  |
| C[C@@]1(c2cccc(NC(=O)c3ccc(Cl)cn3)c2)N=C(N)CO[C@H]1F (single isomer, unassigned) [Compound 85, (S*,S*)—N-[3-(5-amino-2-fluoro-3-methyl-3,6-dihydro-2H-1,4-oxazin-3-yl)phenyl]-5-chloropyridine-2-carboxamide] | 0.851 µM | 6.46 µM | 0.871 µM | 160.8 °C |  |  |  |
| C[C@]1(c2cc(-c3cncnc3)c(F)cc2F)COC2(CC2)C(N)=N1 [Compound 149] | 8.91 µM | > 30.2 µM | 8.71 µM | 187.4 °C |  |  |  |
| C[C@]1(c2cc(-c3cncc(Cl)c3)c(F)cc2F)N=C(N)CO[C@@]1(F)C(F)(F)F [Compound 213] | 3.72 µM | 0.437 µM | 4.07 µM | 70.1 °C |  |  |  |
| C[C@]1(c2cc(-c3cncnc3)c(F)cc2F)N=C(N)CO[C@]1(F)C(F)(F)F [Compound 210] | > 10 µM | 12 µM | > 10 µM | > 300 °C |  |  |  |
| C[C@]1(c2cc(-c3cncnc3)c(F)cc2F)N=C(N)CO[C@@H]1F (single isomer, unassigned) [Compound 148, (R*,R*)-5-(2,4-difluoro-5-pyrimidin-5-ylphenyl)-6-fluoro-5-methyl-5,6-dihydro-2H-1,4-oxazin-3-amine] | > 10 µM | > 30.2 µM | > 10 µM | 186.2 °C |  |  |  |
